{"source": "paper PMC4382497", "about": "“Inverse Agonistic Action of 3-Iodothyronamine at the Human Trace Amine-Associated Receptor 5” (PLoS ONE, 2015)", "target": "T1, hTAAR5 (Homo sapiens, UniProt O14804)", "T1 construct": "gene TAAR5; full length; N-terminal HA tag (YPYDVPDYA) and first 21 residues of bovine rhodopsin (Rho-tag) kept; vector pcDps; transient in HEK293 cells", "T1 sequence (O14804 1-337)": "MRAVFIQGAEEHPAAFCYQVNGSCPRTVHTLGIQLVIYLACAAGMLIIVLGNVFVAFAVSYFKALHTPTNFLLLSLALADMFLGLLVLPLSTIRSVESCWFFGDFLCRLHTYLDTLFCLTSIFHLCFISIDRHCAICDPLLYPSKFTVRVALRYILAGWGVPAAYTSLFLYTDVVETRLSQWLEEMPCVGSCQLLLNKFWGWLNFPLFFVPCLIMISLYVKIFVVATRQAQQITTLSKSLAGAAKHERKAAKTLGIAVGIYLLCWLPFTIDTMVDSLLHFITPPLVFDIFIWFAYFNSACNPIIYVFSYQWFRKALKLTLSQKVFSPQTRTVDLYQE", "experiment": "NFAT-RE luciferase reporter (IP3-luc), HEK293", "type": "cell-based", "conditions": "inverse agonist; reduction of basal Gq/11 (IP3) signaling; 6 h, 37 °C; 1 nM to 100 μM", "data": [{"smiles": "NCCc1ccc(Oc2ccc(O)cc2)c(I)c1", "note": "[3-T1AM]", "values": [{"measurement": "EC50", "result": "4.4 ± 0.9", "unit": "µM"}]}]}
